Values of other authors in patent publication US20080085243A1, “MOLECULAR MARKERS FOR D[…] RESPONSIVENESS” (SIGMA-ALDRICH COMPANY, priority 2006, published 2008).

Test system: late stage non-small cell lung cancer (NSCLC)

SMILES: CC(=O)O[C@H]1C(=O)[C@@]2(C)[C@H]([C@H](OC(=O)c3ccccc3)[C@]3(O)C[C@H](OC(=O)[C@H](O)[C@@H](NC(=O)c4ccccc4)c4ccccc4)C(C)=C1C3(C)C)[C@]1(OC(C)=O)CO[C@@H]1C[C@@H]2O [paclitaxel]
- patients who respond therapeutically: about 20%
